# Patent US6827926B2, “Metallotetrapyrrolic photosensitizing agents for use in photodynamic therapy” (Miravant Pharmaceuticals, Inc., priority 2001, dated 2004)
# Like-named read-outs stand apart in the source and are kept apart here.
# Key:
# [1] = test system: V79 (Chinese Hamster Lung Fibroblasts) cells; experiment: In vitro cytotoxicity assay (light EC50, Alamar blue); type: cell-based
# Method: The in vitro biological evaluation of photosensitizers for their ability to photosensitize cells was performed using standard procedures. Using 5% FBS/DMEM phenol-free media, wells (180 μl/well) were plated with 5×10^4 V79 (Chinese Hamster Lung Fibroblasts) cells/ml into two 96 well plates. Plate 1 was light-treated and plate 2 served as a control. The plates were Incubated at 37° C., 5% CO2 for 3-5 hours. Standard solutions of the photosensitizers were dissolved in pre-filtered Dimethyl Sulfoxide (DMSO). Drug was diluted in 5% FBS DMEM phenol free medium. Final drug concentrations for light and dark experiments were 0.01, 0.1, 1.0, 3.0 and 5.0 μM. Twenty microliters of each concentration were added to six replicate wells to the light and dark plate. The plates were wrapped in aluminum foil to avoid photoactivation and mixed in a gyratory shaker for approximately 2 minutes. Both plates were incubated for 24 hours at 37° C., 5% CO2. After a 24 hour incubation, drug-containing media was aspirated from the plates. Each well was rinsed with 180 μl Hepes buffer salt solution (HBSS) then aspirated to remove the HBSS. 180 μl of fresh media were added (5% FBS/DMEM phenol-free) to each well. […] Plate 2 was not light treated. Immediately after light treatment, 20 μl Alamar blue was added to each well in plate 1. Alamar blue was added to plate 2 immediately after fresh media was added. The plates were mixed on a gyratory shaker for 5 min.
# Both plates were incubated under dark conditions for 24 hours at 37° C., 5% CO2. After 24 hour incubation, the plates were read on a plate reader spectrophotometer (Spectra Max 250) at wavelengths 570 and 600 nm. and the percentage of cell survival recorded.
# [2] = test system: normal uninjured rat carotid arteries (medial and adventitial cell populations); experiment: In vivo rat carotid artery acellularity after PDT; parameters: species or system Sprague Dawley rats; conditions: for Max % rat Artery Accelularity: Table 3, drug dose 1 μMol, 50 J/cm^2, 3 days post treatment; for efficacy of free base porphyrins in the arterial rat model: at the time point, drug and light dose parameters used
# Method: The acute effects of metallated photosensitizers, in response to light activation, to cause depletion of cell populations in the medial and adventitial layers of vessels was measured in normal uninjured rat carotid arteries. […] Shortly before the light treatment, the rats were anaesthetized with 3.5% isoflurane (Abbott Laboratories, IL, USA) and the femoral region of the right leg was shaved and cleaned. […] A direct arteriotomy was performed and a light balloon catheter ([…] Medical Technologies, Inc) was introduced into the vessel and advanced retrogradely into a non-manipulated region of the left common carotid artery via the abdominal aorta. […] After light treatment and removal of the catheter, the right femoral artery was tied off and the skin wound was closed. Rats were sacrificed three days post treatment as this corresponds to the known peak time that vascular cells, e.g., VSMC and myofibroblasts, proliferate and migrate in response to an injury. The area spanning both left and right carotid arteries and surrounding tissue was harvested, fixed, embedded in paraffin and sectioned. The tissues were stained with Hematoxylin and Eosin (Fisher Scientific, PA) and examined by light microscopy to histologically assess the cell population density in the medial and adventitial layers of the PDT-treated vessel wall. […] Metallo azaporphyrins with Ga, Zn, Al, Sn were excited at 575 nm, while Pt azaporphyrins were excited at 532 nm.
# [3] = Table 3 porphyrins, 24 h drug incubation, 532 nm, 1.25 J/cm^2, read-out: In Vitro EC50 Light
# [4] = light EC50, metallodiazaporphyrins, read-out: In Vitro EC(50)
# [5] = Table 4 azaporphyrins, 575 nm (Pt azaporphyrins 532 nm), 1.25 J/cm^2, read-out: In Vitro EC(50)
Compound,"EC50 [1, 3]",Max % rat Artery Accelularity [2],"EC50 [1, 4]",other results
"CCOC(=O)CCCCC1=C(C)c2cc3[nH]c(cc4nc(cc5[nH]c(cc1n2)c(CCCCC(=O)OCC)c5C)C(C)=C4CC)c(C)c3CC.[Pt] [Example 53, Platinum 8,13-diethyl-3,7,12,17-tetramethylporphyrin-2,18-di(pentanoic acid ethyl ester)]",100 nM,20%,–,–
"CCC1=C(C)C2=[N+]3C1=Cc1c(C)c(CC)c4[n]1[Al-2]31([Cl])[n]3c(c(C)c(CCCO)c3=CC3=[N+]1C(=C4)C(C)=C3CCCO)=C2 [Example 73, Aluminum Chloride 8,13-diethyl-3,7,12,17-tetramethylporphyrin-2,18-di(3′-hydroxypropyl)]",3600 nM,0%,–,–
"CCC1=C(C)c2cc3[n-]c(cc4nc(cc5[n-]c(cc1n2)c(C)c5CC)C(C)=C4CCC(=O)[O-])c(CCC(=O)[O-])c3C.[In+3].[Na+].[Na+].[OH-] [Example 110, Indium Hydroxy Mesoporphyrin Disodium Salt]",1000 nM,0%,–,–
"CCC1=C(C)C2=Cc3c(CC)c(C)c4[n]3[Pt][n]3c(c(C)c(CCC(=O)[O-])c3=CC3=NC(=C4)C(C)=C3CCC(=O)[O-])=CC1=N2.[Na+].[Na+] [Example 111, Platinum Mesoporphyrin Disodium Salt]",700 nM,0%,–,–
"C=CC1=C(C)c2cc3[n-]c(cc4nc(cc5[n-]c(cc1n2)c(C)c5CCC(=O)[O-])C(CCC(=O)[O-])=C4C)c(C)c3C=C.[In+3].[Na+].[Na+].[OH-] [Example 112, Indium Hydroxy Protoporphyrin Disodium Salt]",1500 nM,0%,–,–
"CCC1=C(CC)C2=[N+]3C1=Nc1c(CC)c(CC)c4[n]1[Pt-2]31[n]3c(c(CC)c(CC)c3=C2c2ccc(OC)cc2)=NC2=[N+]1C(=C4c1ccc(OC)cc1)C(CC)=C2CC (centres unmarked) [M=Pt, R1=Et, R2=Et, R3=p-(C6H4)OCH3]",–,–,300 nM,–
"CCC1=C(C)c2cc3[nH]c(cc4nc(cc5[nH]c(cc1n2)c(C)c5CCC(=O)OC)C(CCC(=O)OC)=C4C)c(C)c3CC [mesoporphyrin dimethyl ester, reference compound]",–,–,–,efficacy of free base porphyrins in the arterial rat model [2]: poor efficacy
"CCC1=C(C)c2cc3[nH]c(cc4nc(cc5[nH]c(cc1n2)c(C)c5CC)C(C)=C4CCCC(=O)OC)c(CCCC(=O)OC)c3C [metal-free analog of compound 26, 8,13-diethyl-3,7,12,17-tetramethylporphyrin-2,18-di(butanoic acid methyl ester)]",–,–,–,efficacy of free base porphyrins in the arterial rat model [2]: poor efficacy
"CCOC(=O)CCCCC1=C(C)c2cc3[nH]c(cc4nc(cc5[nH]c(cc1n2)c(CCCCC(=O)OCC)c5C)C(CC)=C4C)c(CC)c3C [metal-free analog of compound 28, 8,13-diethyl-3,7,12,17-tetramethylporphyrin-2,18-di(pentanoic acid ethyl ester)]",–,–,–,efficacy of free base porphyrins in the arterial rat model [2]: poor efficacy
"Gallium Chloride 3,7,14,17-tetramethyl-5,10-diazaporphyrin-2,8,12,18-tetra (3′-hydroxypropyl) [Example 118]",–,–,300 nM,–
"Gallium Chloride 3,7,14,17-tetramethyl-5,10-diazaporphyrin-2,8,12,18-tetra propionic acid [Example 117]",–,–,600 nM,–
"Gallium Chloride 7,8,12,13-tetraethyl-12,17-dimethyl-10-azaporphyrin-2,18-di(propionic acid-2′-N,N-dimethylaminoethyl amide) [Example 102]",–,–,–,"EC50 [1, 5]: 1200 nM"
"Gallium Chloride 7,8,12,13-tetraethyl-12,17-dimethyl-10-azaporphyrin-2,18-di(propionic acid-3′-hydroxypropyl amide) [Example 97]",–,–,–,"EC50 [1, 5]: 1700 nM"
"Platinum 3,7,14,17-tetramethyl-5,10-diazaporphyrin-2,8,12,18-tetra(3′-hydroxypropyl) [Example 120]",–,–,60 nM,–
"Platinum 3,7,14,17-tetramethyl-5,10-diazaporphyrin-2,8,12,18-tetra(propionic acid methyl ester [Example 119]",–,–,350 nM,–
